Results on 63 molecules are retold here after US8288371B2, “Ortho pyrrolidine, benzyl-substituted heterocycle CCR1 antagonists for autoimmune diseases and inflammation” (Pharmacopeia, LLC, priority 2007, dated 2012).

What is called IC50 is the concentration that gives 50% inhibition.

This assay has as its target T1, human CCR1 (Homo sapiens, UniProt P32246).
T1 sequence (P32246 1-355): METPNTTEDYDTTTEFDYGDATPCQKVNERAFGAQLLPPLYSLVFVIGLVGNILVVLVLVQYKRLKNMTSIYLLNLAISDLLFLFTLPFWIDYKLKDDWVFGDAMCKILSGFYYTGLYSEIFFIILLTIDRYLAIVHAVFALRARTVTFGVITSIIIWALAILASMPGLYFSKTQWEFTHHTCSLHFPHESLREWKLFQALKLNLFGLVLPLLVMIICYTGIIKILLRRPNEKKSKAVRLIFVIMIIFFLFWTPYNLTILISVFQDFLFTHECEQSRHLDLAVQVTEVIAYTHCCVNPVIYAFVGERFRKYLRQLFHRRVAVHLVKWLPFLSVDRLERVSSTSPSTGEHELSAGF
The assay can be described thus: CCR1 binding protocol (SPA, [125I]-MIP-1α displacement). The settings on record: cell membrane expressing human CCR1, 0.1 nM [125I]-MIP-1α, 4 hours at ambient temperature; read-out: Relative potency (IC50). Put shortly: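 Displacement of 0.1 nM [125I]-MIP-1α (final) from membranes expressing human CCR1 was measured by scintillation proximity after 4 h at ambient temperature. Conditions: pH 7.4 Tris buffer with 0.1% BSA and MnCl, and 0.5 μg membrane per well. Compounds were tested as a 10-step ½-log series from a 10 mM DMSO stock to derive IC50.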
For the molecule `Cc1ccc(C(=O)O)cc1NC(=O)N1CCC[C@@H]1c1nnc(C)n1Cc1ccc(Cl)cc1` [Compound 241], the IC50 lay within 50 to 500 nM.
To `Cc1c(NC(=O)N2CCC[C@@H]2c2nnc(C)n2Cc2ccc(Cl)cc2)cccc1C(=O)O` [Compound 242] belongs 50 to 500 nM; to `Cc1nnc([C@H]2CCCN2C(=O)Nc2ccc(Cl)cn2)n1Cc1ccc(Cl)cc1` [Compound 243], 50 to 500 nM.
As for `Cc1ccc(NC(=O)N2CCC[C@@H]2c2nnc(C)n2Cc2ccc(Cl)cc2)c(C(N)=O)c1` [Compound 244], the IC50 lay within 50 to 500 nM.
In the case of `Cc1nnc([C@H]2CCCN2C(=O)Nc2cccnc2)n1Cc1ccc(Cl)cc1` [Compound 245], the IC50 is 500 to 5000 nM.
Then `Cc1nnc([C@H]2CCCN2C(=O)NC2CCCC2)n1Cc1ccc(Cl)cc1` [Compound 246], with 500 to 5000 nM; and `Cc1c(NC(=O)N2CCC[C@@H]2c2nnc(C)n2Cc2ccc(Cl)cc2)cccc1C(N)=O` [Compound 247], with 500 to 5000 nM.
Then `COC(=O)c1cc(C)ccc1NC(=O)N1CCC[C@@H]1c1nnc(C)n1Cc1ccc(Cl)cc1` [Compound 248], with 500 to 5000 nM.
With `O=C(NCc1ccc(C(F)(F)F)cc1)N1CCC[C@@H]1c1nnc(C(F)(F)F)n1Cc1ccc(Cl)cc1` [Compound 249], the IC50 fell in the range of 500 to 5000 nM.
Then `Cc1nnc([C@H]2CCCN2C(=O)Nc2cncnc2)n1Cc1ccc(Cl)cc1` [Compound 250], with 500 to 5000 nM.
Then `Cc1cccc(C(=O)O)c1NC(=O)N1CCC[C@@H]1c1nnc(C)n1Cc1ccc(Cl)cc1` [Compound 251], with 500 to 5000 nM; and `Cc1nnc([C@H]2CCCN2C(=O)NC(C)C)n1Cc1ccc(Cl)cc1` [Compound 252], with 500 to 5000 nM.
Then `Cc1nnc([C@H]2CCCN2C(=O)Nc2ccccn2)n1Cc1ccc(Cl)cc1` [Compound 253], with 500 to 5000 nM; and `Cc1cc(C)c(NC(=O)N2CCC[C@@H]2c2nnc(C)n2Cc2ccc(Cl)cc2)c(C(=O)O)c1` [Compound 254], with 500 to 5000 nM.
For `CSc1nc(Cl)cc(NC(=O)N2CCC[C@@H]2c2nnc(C)n2Cc2ccc(Cl)cc2)n1` [Compound 255], the IC50 lay in the range of 500 to 5000 nM.
To `Cc1cc(NC(=O)N2CCC[C@@H]2c2nnc(C)n2Cc2ccc(Cl)cc2)nc(C)n1` [Compound 256] belongs 500 to 5000 nM.
Take `Cc1nnc([C@H]2CCCN2C(=C[N+](=O)[O-])Nc2ccc(C(F)(F)F)cc2)n1Cc1ccc(Cl)cc1` [Compound 257]: the IC50 lay in the range of 500 to 5000 nM.
Then `Cc1nnc([C@H]2CCCN2C(=O)Nc2ccncn2)n1Cc1ccc(Cl)cc1` [Compound 258], with 500 to 5000 nM; and `Cc1noc(C)c1NC(=O)N1CCC[C@@H]1c1nnc(Cl)n1Cc1ccc(Cl)cc1` [Compound 259], with less than 50 nM; and `Cc1nnc([C@H]2CCCN2/C(=N\C#N)N[C@H]2CCOc3cc(C(F)(F)F)ccc32)n1Cc1ccc(Cl)cc1` [Compound 260], with 50 to 500 nM.
To `Cc1nnc([C@H]2CCCN2C(=O)N[C@H]2CCCOc3ccccc32)n1Cc1ccc(Cl)cc1` [Compound 261] belongs 50 to 500 nM.
With `Cc1nnc([C@H]2CCCN2C(=O)N[C@@H]2CC(C)(C)Oc3cc(C(F)(F)F)ccc32)n1Cc1ccc(Cl)cc1` [Compound 262], the IC50 is 500 to 5000 nM.
Then `Cc1nnc([C@H]2CCCN2C(=O)NC2(c3ccc(C(F)(F)F)cc3)CC2)n1Cc1ccc(Cl)cc1` [Compound 263], with less than 50 nM; and `Cc1nnc([C@H]2CCCN2C(=O)NC2(c3ccccc3C(F)(F)F)CC2)n1Cc1ccc(Cl)cc1` [Compound 264], with 500 to 5000 nM; and `Cc1nnc([C@H]2CCCN2C(=O)NC2(c3cccc(C(F)(F)F)c3)CC2)n1Cc1ccc(Cl)cc1` [Compound 265], with less than 50 nM.
Then `Cc1nnc([C@H]2CCCN2C(=O)NC2(c3cccc(F)c3)CC2)n1Cc1ccc(Cl)cc1` [Compound 266], with less than 50 nM; and `Cc1nnc([C@H]2CCCN2C(=O)NC2CCCc3cccc(Cl)c32)n1Cc1ccc(Cl)cc1` (stereo partly drawn) [Compound 267], with 50 to 500 nM; and `Cc1nnc([C@H]2CCCN2C(=O)N[C@H]2CC(C)(C)Oc3cc(C(F)(F)F)ccc32)n1Cc1ccc(Cl)cc1` [Compound 268], with less than 50 nM.
Then `Cc1ccc2c(c1)CCCC2NC(=O)N1CCC[C@@H]1c1nnc(C)n1Cc1ccc(Cl)cc1` (stereo partly drawn) [Compound 269], with 50 to 500 nM; and `Cc1nnc([C@H]2CCCN2C(=O)NC2(c3ccc(F)cc3)CC2)n1Cc1ccc(Cl)cc1` [Compound 270], with less than 50 nM; and `Cc1nnc([C@H]2CCCN2C(=O)NC2(c3ccc(Cl)cc3)CC2)n1Cc1ccc(Cl)cc1` [Compound 271], with less than 50 nM.
For `Cc1nnc([C@H]2CCCN2C(=O)NC2CC(C)(C)Oc3cc(C(F)(F)F)ccc32)n1Cc1ccc(Cl)cc1` (stereo partly drawn) [Compound 272], the IC50 fell in the range of 50 to 500 nM.
Consider `Cc1nnc([C@H]2CCCN2C(=O)NC2(c3ccccc3F)CC2)n1Cc1ccc(Cl)cc1` [Compound 273], for which the IC50 is less than 50 nM.
Then `Cc1nnc([C@H]2CCCN2C(=O)Nc2ccc3c(c2)CC(C)O3)n1Cc1ccc(Cl)cc1` (stereo partly drawn) [Compound 274], with 50 to 500 nM; and `Cc1nnc([C@H]2CCCN2C(=O)NC(C)(C)c2ccc(F)cc2)n1Cc1ccc(Cl)cc1` [Compound 275], with less than 50 nM.
For `Cc1onc(-c2ccccc2Cl)c1NC(=O)N1CCC[C@@H]1c1nnc(C)n1Cc1ccc(Cl)cc1` [Compound 276], the IC50 was less than 50 nM.
To `Cc1nnc([C@H]2CCCN2C(=O)Nc2ccc(C(F)(F)F)cn2)n1Cc1ccc(Cl)cc1` [Compound 277] belongs 50 to 500 nM.
Then `Cc1nnc([C@H]2CCCN2C(=O)Nc2ccc(C(C)C)cc2C(F)(F)F)n1Cc1ccc(Cl)cc1` [Compound 278], with less than 50 nM.
Then `CNC(=O)c1cc(C)ccc1NC(=O)N1CCC[C@@H]1c1nnc(C)n1Cc1ccc(Cl)cc1` [Compound 279], with 50 to 500 nM.
Turning to `CC[C@H](NC(=O)N1CCC[C@@H]1c1nnc(C)n1Cc1ccc(Cl)cc1)c1cc2cc(C(F)(F)F)ccc2o1` [Compound 280], the IC50 was less than 50 nM.
As to `Cc1cccnc1NC(=O)N1CCC[C@@H]1c1nnc(C)n1Cc1ccc(Cl)cc1` [Compound 281], the IC50 was less than 50 nM.
To `Cc1nnc([C@H]2CCCN2C(=O)Nc2cc(C(=O)O)ccc2F)n1Cc1ccc(Cl)cc1` [Compound 282] belongs 500 to 5000 nM.
To `CC(=O)N1CCC[C@@H](NC(=O)N2CCC[C@@H]2c2nnc(C)n2Cc2ccc(Cl)cc2)C1` [Compound 283] belongs 50 to 500 nM; to `COC(=O)c1ccc(F)c(NC(=O)N2CCC[C@@H]2c2nnc(C)n2Cc2ccc(Cl)cc2)c1` [Compound 284], less than 50 nM; to `CC[C@@H](NC(=O)N1CCC[C@@H]1c1nnc(C)n1Cc1ccc(Cl)cc1)c1ccccc1` [Compound 285], less than 50 nM.
Then `COC(=O)c1ccc(Cl)c(NC(=O)N2CCC[C@@H]2c2nnc(C)n2Cc2ccc(Cl)cc2)c1` [Compound 286], with less than 50 nM.
Turning to `CCc1noc(CC)c1NC(=O)N1CCC[C@@H]1c1nnc(C)n1Cc1ccc(Cl)cc1` [Compound 287], the IC50 is less than 50 nM.
Then `Cc1cccc(-c2noc(C)c2NC(=O)N2CCC[C@@H]2c2nnc(C)n2Cc2ccc(Cl)cc2)c1` [Compound 288], with less than 50 nM; and `CCc1noc(C)c1NC(=O)N1CCC[C@@H]1c1nnc(C)n1Cc1ccc(Cl)cc1` [Compound 290], with less than 50 nM; and `Cc1onc(-c2ccccc2F)c1NC(=O)N1CCC[C@@H]1c1nnc(C)n1Cc1ccc(Cl)cc1` [Compound 291], with less than 50 nM.
On to `COC1CCC(NC(=O)N2CCC[C@@H]2c2nnc(C)n2Cc2ccc(Cl)cc2)CC1` (stereo partly drawn) [Compound 292], for which the IC50 lay within 50 to 500 nM.
To `Cc1onc(-c2ccc(Cl)cc2)c1NC(=O)N1CCC[C@@H]1c1nnc(C)n1Cc1ccc(Cl)cc1` [Compound 293] belongs less than 50 nM; to `Cc1nnc([C@H]2CCCN2C(=O)Nc2cc(C(N)=O)ccc2F)n1Cc1ccc(Cl)cc1` [Compound 294], 50 to 500 nM.
Turning to `Cc1ccc(NC(=O)N2CCC[C@@H]2c2nnc(C)n2Cc2ccc(Cl)cc2)c(C(=O)N(C)C)c1` [Compound 295], the concentration for half-maximal inhibition (IC50) lay in the range of 50 to 500 nM.
Then `Cc1cc(C)c(NC(=O)N2CCC[C@@H]2c2nnc(C)n2Cc2ccc(Cl)cc2)c(C)n1` [Compound 296], with less than 50 nM; and `Cc1onc(-c2ccc(F)cc2)c1NC(=O)N1CCC[C@@H]1c1nnc(C)n1Cc1ccc(Cl)cc1` [Compound 297], with less than 50 nM.
Then `Cc1nnc([C@H]2CCCN2C(=O)Nc2cc(C(=O)O)ccc2Cl)n1Cc1ccc(Cl)cc1` [Compound 298], with 500 to 5000 nM; and `Cc1cnccc1NC(=O)N1CCC[C@@H]1c1nnc(C)n1Cc1ccc(Cl)cc1` [Compound 299], with 50 to 500 nM.
To `Cc1cc(C(N)=O)ccc1NC(=O)N1CCC[C@@H]1c1nnc(C)n1Cc1ccc(Cl)cc1` [Compound 300] belongs 50 to 500 nM; to `CNC(=O)c1ccc(F)c(NC(=O)N2CCC[C@@H]2c2nnc(C)n2Cc2ccc(Cl)cc2)c1` [Compound 301], 50 to 500 nM.
For `Cc1nnc([C@H]2CCCN2C(=O)Nc2cc(C(=O)N(C)C)ccc2F)n1Cc1ccc(Cl)cc1` [Compound 302], the IC50 was in the range of 50 to 500 nM.
To `COc1ccc(-c2noc(C)c2NC(=O)N2CCC[C@@H]2c2nnc(C)n2Cc2ccc(Cl)cc2)cc1` [Compound 303] belongs less than 50 nM.
To `Cc1onc(-c2ccncc2)c1NC(=O)N1CCC[C@@H]1c1nnc(C)n1Cc1ccc(Cl)cc1` [Compound 304] belongs less than 50 nM.
